{"source": "patent US20020107245A1", "about": "“Method for treating fibrotic diseases or other indications IVC” (priority 2000, published 2002)", "key": {"[1]": {"test_system": "dog model for diabetes", "assay": "Dog model for diabetes, indicators of ventricular elasticity", "assay_type": "in vivo", "from_the_text": "(§1) Cardiovascular risk correlates more closely with the systolic and the pulse pressure than with the diastolic pressure. In diabetic patients, the cardiovascular risk profile of diabetic patients is strongly correlated to duration of diabetes, glycemic control and blood pressure. Structural matrix proteins contribute to the function of vessels and the heart, and changes in the physical behavior of cardiovascular walls are believed to be important determinants of circulatory function. In elderly individuals, the loss of compliance in the aorta leads to isolated systolic hypertension, which in turn expands the arterial wall and thereby diminishes the dynamic range of elasticity. […] Treatment with 3-[2-phenyl-2-oxoethyl]-4,5-dimethyl-thiazolium salt lead to a reduction in the mass of collagen in cardiovascular tissues."}, "[2]": {"test_system": "TGFbeta", "assay": "In situ hybridization studies", "from_the_text": "as §1"}, "[3]": {"test_system": "Type IV collagen", "assay": "In situ hybridization studies", "from_the_text": "as §1"}, "[4]": {"test_system": "Rats", "assay": "Rat left anterior descending coronary artery ligation, histological examination of hearts", "assay_type": "in vivo", "details": "10 mg/kg daily intraperitoneal for 30 days before ligation and 14 days after", "method": "Rats received a daily intraperitoneal dose of 10 mg/kg 3-[2-phenyl-2-oxoethyl]-4,5-dimethyl-thiazolium salt (compound A) (n=14) or placebo (n=15) for 30 days. The animals then underwent a thoracotomy and the left anterior descending coronary artery ligated. The chest was then closed and the animals allowed to recover for 14 days while continuing to be treated with compound A or placebo. The animals were then sacrificed and the hearts removed for histological examination. The weight of the infarcted tissue was 0.16±0.04 g for the placebo treated animals compared to 0.11±0.05 g for the compound A treated animals (p=0.04)."}, "[5]": {"test_system": "elderly patients with pulse pressures greater than 60 mm Hg", "assay": "Phase Ia clinical trial", "assay_type": "in vivo, human", "from_the_text": "When the heart pumps blood into the vascular system, the ability of the arteries to expand helps to push blood through the body. When arteries become stiff, as they do in the natural process of aging, the ability of the arteries to expand is diminished and also has consequences for the heart. The heart has to work harder to pump the blood into the stiff arteries, and eventually hypertrophies (enlarges in size) to accomplish this. A hypertrophied heart is an inefficient pump, and is one of the disorders that leads to congestive heart failure. […] The potential clinical benefit of this is to lessen the effort that the heart must expend to push blood throughout the body. The effect is also believed to contribute to preventing hypertrophy and subsequent inefficiency of the heart, which inefficiency would contribute to congestive heart failure.\nAtherosclerosis is a disease that involves deposition of blood lipids in plaque in the arteries throughout the body. In coronary arteries, accumulation of plaque progressively leads to reduced coronary flow, with occlusion of the arteries causing focal death of cardiac tissue (myocardial infarction, heart attack). If the amount of tissue that dies is large enough, death ensures. […]"}, "[6]": {"test_system": "rodents, canines and primates", "assay": "In vivo studies of vascular stiffening and collagen mass in cardiovascular tissues", "from_the_text": "as §1"}}, "note": "Counter-ions that a name gives are not always drawn.", "data": [{"compound": "Cc1sc[n+](CC(=O)c2ccccc2)c1C", "note": "[compound A, 3-[2-phenyl-2-oxoethyl]-4,5-dimethyl-thiazolium salt]", "values": [{"measurement": "end diastolic pressure", "setting": "[1]", "value": "returned to a value at about the mid-point between the disease impaired value and the value for control dogs"}, {"measurement": "end diastolic volume", "setting": "[1]", "value": "returned to a value at about the mid-point between the disease impaired value and the value for control dogs"}, {"measurement": "expression of TGFbeta", "setting": "[2]", "value": "reduces"}, {"measurement": "expression of Type IV collagen", "setting": "[3]", "value": "reduces"}, {"measurement": "thickness of the ventricular wall in the infarcted zone", "setting": "[4]", "value": "2.56±0.22", "unit": "mm"}, {"measurement": "weight of the infarcted tissue", "setting": "[4]", "value": "0.11 ± 0.05", "unit": "g"}, {"measurement": "stiffness of arteries, as measured by the ratio of stroke volume (ml) to pulse pressure (mm Hg)", "setting": "[5]; Phase Ia clinical trial", "value": "showed an ability to reverse the stiffness of arteries"}, {"measurement": "pulse pressure", "setting": "[5]; Phase Ia trial, elderly patients with pulse pressures greater than 60 mm Hg", "value": "reduced"}, {"measurement": "mass of collagen in cardiovascular tissues", "setting": "[6]; in vivo", "value": "reduction"}, {"measurement": "vascular stiffening", "setting": "[6]; in vivo studies in rodents, canines and primates", "value": "substantially ameliorating vascular stiffening"}]}]}
